Experimental data as given in US5101072A, “Sulfonylhydrazines and their use as antineoplastic agents and as antitrypanosomal agents” (Yale University, priority 1989, dated 1992).

Assays:
[1] = tested on: T. rhodesiense (Y Tat 1.1); assay: Survival time of CD-1 mice infected with T. rhodesiense (trypanocidal activity); type: in vivo, T. rhodesiense (Y Tat 1.1); CD-1 mice; conditions: for Mean Extension of Life (Table III): administered in 0.05 ml of DMSO, dose not given
Method: The trypanocidal properties of several methylating agents including MeSO2 N(Me)N(SO2 Me)2 and MeSO2 N(Me)N(Me)SO2 Me were determined by measuring their effects on the survival time of CD-1 mice infected with T. rhodesiense (Y Tat 1.1), a pleimorphic strain that produces a non-relapsing disease in mice. The level of parasites in the bloodstream and body fluids increases by approximately 10-fold per day and the animals die when the parasite burden exceeds 1 to 2×10^9 cells/ml. Infection with a single viable parasite will kill a mouse in approximately 9 to 10 days.
Mice were infected ip with approximately 10^6 trypanosomes/mouse in phosphate buffered saline containing glucose. This level of parasites produces death in 4 days post-infection. These mice were treated (ip) with a single dose of drug dissolved in the appropriate vehicle 3 days after infection, when the parasitemia was 1 to 3×10^8 cells/ml of blood and the mice, if untreated, would survive for only 24 additional hours. The number of days the mice survived beyond that of the untreated controls was used as a measure of trypanocidal activity. The level of parasitemia in treated mice was measured at regular intervals to distinguish between parasite-related and drug toxicity-related deaths. No toxic deaths were observed. Mice that survived for 30 days without detectable parasitemias were considered cured. The effects of a single dose of various methylating agents on the survival time of trypanosome-bearing mice are summarized in Table II.
^a Drug that was administered was dissolved in 0.5 ml of phosphate
buffered saline containing glucose.
^b Drug that was administered was dissolved in 0.05 ml of DMSO.

[2] = Methanol generation in vitro (spontaneous breakdown to generate reactive methyl groups); type: physicochemical; conditions: relative; PhSO2 N(Me)NHSO2 Ph = 1.0
Method: (§1) The reaction of 1,2-bis(sulfonyl)-1-methylhydrazine with water at pH 7.4-7.6 at 37° C. can be followed by proton release and/or methanol generation. Methanol generation can be assayed using alcohol oxidase and measuring the resultant O2 consumption using a Gilson oxygraph. This assay can be calibrated using methanol standards. The reaction of 1,2-bis(sulfonyl)-1-methylhydrazine with water is relatively fast [a 50 μM solution of 1,2-bis(methylsulfonyl)-1-methylhydrazine decomposes at an initial rate of 12-15% per minute in phosphate buffered saline (pH 7.6) at 37° C.] compared to the hydroylsis of 1,2,2-tris(methylsulfonyl)-1-methylhydrazine. RSO2 N=NMe may also decompose by a free radical mechanism to a smaller extent and methylate by the generation of methyl radicals.
Methanol was produced by these agents in aqueous solutions free from strong competing nucleophiles. Formation of this alcohol was used as a measure of the rate of spontaneous breakdown of these compounds to generate reactive methyl groups. […] These findings provide strong evidence that methylation is essential for the observed biological activity of these compounds.

L1210 leukemia = assay: Survival time of mice bearing the L1210 leukemia; type: in vivo; conditions: for 60-day cures, % / % T/C (average survival time of treated/control animals × 100): L1210, at optimum effective daily dose, once daily × 6 days
Method: The tumor-inhibitory properties of several compounds, e.g., 1,2-bis(methylsulfonyl)-1-methylhydrazine, 1-methyl-1,2,2-tris(methylsulfonyl)hydrazine, 1,2-bis(methylsulfonyl)-1,2-dimethylhydrazine and 1-(2-chloroethyl)-1,2,2-tris(methylsulfonyl)hydrazine were determined by measuring the effects of these agents on the survival time of mice bearing the L1210 leukemia as described by K. Shyam, L. A. Cosby, and A. C. Sartorelli, J. Med. Chem., 28, 525-527 (1985).
^a Administered once daily for 6 consecutive days, beginning 24 hours
after tumor transplantation with 5-10 animals being used per group.
^b Average change in body weight from onset to termination of therapy
^c % T/C = average survival time of treated/control animals ×

[3] = Hydrolysis / decomposition in aqueous solution; type: physicochemical; conditions: 50 μM solution, phosphate buffered saline (pH 7.6), 37° C.
Method: In the case of 1,2,2-tris(methylsulfonyl)-1-methylhydrazine, this reaction occurs slowly. A 50 μM solution of this compound hydrolyzes at an initial rate of 1% per minute in phosphate buffered saline (pH 7.6) at 37° C.
Hydrolysis is expected to occur preferentially at N-2 to generate the 1,2-bis(sulfonyl)-1-methylhydrazine. The sulfonic acid and 1,2-bis(sulfonyl)-1-methylhydrazine that are generated are both ionized under these conditions. The release of protons can be used to follow the decomposition of these and related compounds. The release of protons can be assayed by following the decrease in absorbance at 560 nm of a weakly buffered (1 mM potassium phosphate) phenol red (21 mg/l) solution; initial pH 7.6 at 37° C. The assay can be calibrated using HCl standards.
as §1

T. rhodesiense = assay: Oral trypanocidal activity (preliminary); type: in vivo, T. rhodesiense; mice; conditions: aqueous solutions, preliminary results
Excerpt: Orally active trypanocidal agents are desirable since, in areas where trypanosomiasis is endemic, other routes of drug administration frequently present problems.

[4] = mice bearing L1210, at optimum effective daily dose
[5] = single ip dose 0.2 mmol/kg in 0.05 ml of DMSO
[6] = single ip dose 0.2 mmol/kg in 0.5 ml phosphate buffered saline containing glucose

CNN [MeNHNH2, methylhydrazine]
Mean Extension of Life ([1]; single ip dose 0.5 mmol/kg in 0.5 ml phosphate buffered saline containing glucose): 1 days

O=S(=O)(NNS(=O)(=O)c1ccccc1)c1ccccc1 [PhSO2 NHNHSO2 Ph]
Mean Extension of Life (Table III) [1]: 0 days | Relative Methanol Generation in vitro [2]: 0

CS(=O)(=O)N(CCBr)N(S(C)(=O)=O)S(C)(=O)=O [MeSO2 N(CH2 CH2 Br)N(SO2 Me)2, 1-(2-bromoethyl)-1,2,2-tris(methylsulfonyl)hydrazine]
60-day cures, % (L1210 leukemia): 0% | % T/C (average survival time of treated/control animals × 100) (L1210 leukemia): 213% | AvΔ Wt, % (average change in body weight from onset to termination of therapy) (L1210 leukemia; [4]): -2.0%

CN(NC(=O)c1ccccc1)C(=O)c1ccccc1 [PhCON(Me)NHCOPh]
Mean Extension of Life (Table III) [1]: 0 days | Relative Methanol Generation in vitro [2]: 0

COS(=O)(=O)OC [Me2 SO4]
Mean Extension of Life [1, 5]: 3.0 days

CS(=O)(=O)N(N(CCCl)S(=O)(=O)c1ccc(Cl)cc1)S(C)(=O)=O [Cl-4-C6 H4 SO2 N(CH2 CH2 Cl)N(SO2 Me)2, 2,2-Bis(methylsulfonyl)-1-(2-chloroethyl)-1-[(4-chlorophenyl)sulfonyl]hydrazine]
60-day cures, % (L1210 leukemia): 60% | % T/C (average survival time of treated/control animals × 100) (L1210 leukemia): 203% | AvΔ Wt, % (average change in body weight from onset to termination of therapy) (L1210 leukemia; [4]): -3.4%

CN(N(S(C)(=O)=O)S(C)(=O)=O)S(C)(=O)=O [MeSO2 N(Me)N(SO2 Me)2, 1-Methyl-1,2,2-tris(methylsulfonyl)hydrazine]
60-day cures, % (L1210 leukemia): 0% | % T/C (average survival time of treated/control animals × 100) (L1210 leukemia): 186% | AvΔ Wt, % (average change in body weight from onset to termination of therapy) (L1210 leukemia; mouse, in vivo): -7.7% | Mean Extension of Life [1, 5]: 7.7 days | cure (30 days without detectable parasitemias) ([1]; single ip dose 1.0 mmol/kg in 0.05 ml of DMSO): 100% | Initial rate of hydrolysis / decomposition [3]: 1 % per minute | Trypanocidal activity on oral administration compared with Table II (T. rhodesiense): comparable activity to that reported in Table II

CN(N=O)C(=O)N[C@H]1C(O)O[C@H](CO)[C@@H](O)[C@@H]1O (stereo partly drawn) [Streptozotocin, streptozotocin]
Mean Extension of Life [1, 6]: 4.3 days

Cc1ccc(S(=O)(=O)N(CCCl)N(S(C)(=O)=O)S(C)(=O)=O)cc1 [Me-4-C6 H 4 SO2 N(CH2 CH2 Cl)N(SO2 Me)2, 2,2-bis(methylsulfonyl)-1-(2-chloroethyl)-1-(4-toluenesulfonyl)hydrazine]
60-day cures, % (L1210 leukemia): 60% | % T/C (average survival time of treated/control animals × 100) (L1210 leukemia): 215% | AvΔ Wt, % (average change in body weight from onset to termination of therapy) (L1210 leukemia; [4]): -12.0%

CS(=O)(=O)N(N(CCCl)S(=O)(=O)c1ccc(Br)cc1)S(C)(=O)=O [Br-4-C6 H4 SO2 N(CH2 CH2 Cl)N(SO2 Me)2, 2,2-Bis(methylsulfonyl)-1-[(4-bromophenyl)sulfonyl]-1-(2-chloroethyl)hydrazine]
60-day cures, % (L1210 leukemia): 60% | % T/C (average survival time of treated/control animals × 100) (L1210 leukemia): 241% | AvΔ Wt, % (average change in body weight from onset to termination of therapy) (L1210 leukemia; [4]): +0.9%

COc1ccc(S(=O)(=O)NN(C)S(C)(=O)=O)cc1 [MeSO2 N(Me)NHSO2 C6 H4 -p-OMe]
Mean Extension of Life [1, 5]: 4.5 days

CNNC [MeNHNHMe, 1,2-dimethylhydrazine]
Mean Extension of Life [1, 6]: 4.3 days

CN(C)N=Nc1[nH]cnc1C(N)=O [DTIC, 5-(3,3-dimethyl-1-triazenyl)-1H-imidazole-4-carboxamide]
Mean Extension of Life [1, 6]: 6.0 days

CN(N(C)S(C)(=O)=O)S(C)(=O)=O [MeSO2 N(Me)N(Me)SO2 Me, 1,2-Bis(methylsulfonyl)-1,2-dimethylhydrazine]
60-day cures, % (L1210 leukemia): 0% | % T/C (average survival time of treated/control animals × 100) (L1210 leukemia): 158% | AvΔ Wt, % (average change in body weight from onset to termination of therapy) (L1210 leukemia; mouse, in vivo): -11.3% | cure (30 days without detectable parasitemias) [1, 5]: 25% | Mean Extension of Life for relapsing animals ([1]; single ip dose 0.2 mmol/kg in 0.05 ml of DMSO, relapsing animals): 9.7 days | Trypanocidal activity on oral administration compared with Table II (T. rhodesiense): comparable activity to that reported in Table II

CNNCc1ccc(C(=O)NC(C)C)cc1 [Procarbazine, procarbazine]
Mean Extension of Life [1, 6]: 5.0 days

CCOS(=O)(=O)OCC [Et2 SO4]
Mean Extension of Life [1, 5]: 0 days

CCNNCC [EtNHNHEt]
Mean Extension of Life [1, 6]: 0 days

CS(=O)(=O)N(CCI)N(S(C)(=O)=O)S(C)(=O)=O [MeSO2 N(CH2 CH2 I)N(SO2 Me)2, 1-(2-iodoethyl)-1,2,2-tris(methylsulfonyl)hydrazine]
60-day cures, % (L1210 leukemia): 0% | % T/C (average survival time of treated/control animals × 100) (L1210 leukemia): 110% | AvΔ Wt, % (average change in body weight from onset to termination of therapy) (L1210 leukemia; [4]): +8.0%

COc1ccc(S(=O)(=O)N(CCCl)N(S(C)(=O)=O)S(C)(=O)=O)cc1 [MeO-4-C6 H4 SO2 N(CH2 CH2 Cl)N(SO2 Me)2, 2,2-Bis(methylsulfonyl)-1-(2-chloroethyl)-1-[(4-methoxyphenyl)sulfonyl]hydrazine]
60-day cures, % (L1210 leukemia): 100% | AvΔ Wt, % (average change in body weight from onset to termination of therapy) (L1210 leukemia; [4]): +5.9%

COS(C)(=O)=O [MeSO2 OMe]
Mean Extension of Life [1, 5]: 1.0 days

CS(=O)(=O)N(N(CCCl)S(=O)(=O)c1ccccc1)S(C)(=O)=O [C6 H5 SO2 N(CH2 CH2 Cl)N(SO2 Me)2, 2,2-bis(methylsulfonyl)-1-(2-chloroethyl)-1-phenylsulfonylhydrazine]
60-day cures, % (L1210 leukemia): 40% | % T/C (average survival time of treated/control animals × 100) (L1210 leukemia): 187% | AvΔ Wt, % (average change in body weight from onset to termination of therapy) (L1210 leukemia; [4]): +0.5%

CS(=O)(=O)OCCN(N(S(C)(=O)=O)S(C)(=O)=O)S(C)(=O)=O [MeSO2 N(CH2 CH2 OSO2 Me)N(SO2 Me)2, 1-(2-methylsulfonyloxy)ethyl-1,2,2-tris(methylsulfonyl)hydrazine]
60-day cures, % (L1210 leukemia): 0% | % T/C (average survival time of treated/control animals × 100) (L1210 leukemia): 198% | AvΔ Wt, % (average change in body weight from onset to termination of therapy) (L1210 leukemia; mouse, in vivo): -4.2%

CN(NS(=O)(=O)c1ccccc1)S(=O)(=O)c1ccccc1 [PhSO2 N(Me)NHSO2 Ph]
Mean Extension of Life (Table III) [1]: 5 days | Mean Extension of Life [1, 5]: 5.0 days | Relative Methanol Generation in vitro [2]: 1.0

CN(N=O)C(N)=O [N-Methyl-N-nitrosourea]
Mean Extension of Life [1, 5]: 8.0 days
